Results published in US20230391727A1, “ANALOGUES OF PENTAMIDINE AND METHODS FOR TREATING INFECTIONS” (Auransa Inc., priority 2020, published 2023).
≈ marks a conversion by molar mass, not a printed value. Where two headings read alike, the source gives them in different places. One block for each molecule: values may come before it.

Columns and labels:
A. baumannii ATCC 17978 = assay: Checkerboard assay with novobiocin (FIGS. 2, 3, 5, 6); format: cell-based, Acinetobacter baumannii
From the text: Novobiocin is an anti-staphylococcal drug, but with limited use. The oral form of novobiocin drug has since been withdrawn from the market due to lack of efficacy. This antibiotic is often used to treat Staphylococcus aureus infection, particularly methicillin resistant S. aureus “MRSA”.

K. pneumoniae ATCC 43816 = assay: Checkerboard assay with rifampicin (FIG. 4); format: cell-based, Klebsiella pneumoniae; conditions: K. pneumoniae ATCC 43816, FIG. 4
NCI H69 cells = assay: CellTiter-Glo cell viability assay (cytotoxicity), 8 days; format: cell-based; conditions: Homo sapiens, 192 h, full growth media
Protocol: The experiment tested pentamidine, Compounds 1-6 in full growth media for 8 days. NCI H69 cells were initially treated with the test compounds on Day 0, and the cells were then replenished with fresh compound dilutions on Day 3. Pentamidine and Compound 1 were tested at 9 concentration points: 100 μM, 33.33 μM, 11.11 μM, 3.70 μM, 1.23 μM, […], 0.05 μM, and 0.02 μM (final DMSO concentration=0.5%). The raw data values from the CellTiter-Glo™ cell viability assay expressed in relative luminescence units were normalized to the vehicle for each individual plate, and any reduction in luminescence indicated a decrease in viability (%). The data was analyzed in GraphPad PRISM using a non-linear sigmoidal plot with variable slope (asymmetric four-point […]), and an IC50 value for each compound was generated based on the normalized dose-response curves and shown in Table 1.

S. aureus ATCC 27660 = assay: MIC assay against gram positive S. aureus; format: cell-based; conditions: Staphylococcus aureus, ATCC27660
Protocol: (§1) Then the compound stocks were serially 2-fold diluted in a v-bottom 96-well plate to make 100-fold working solutions. One day before the test, −80° C. glycerol stock of S. aureus strains were streaked on cation-adjusted Mueller-Hinton agar (CAMHA) plates. On the day of test, fresh bacterial colonies were suspended into sterile saline to an OD600 nm of ˜0.1 (equivalent to 0.5 McFarland). The bacterial suspension was firstly 20-fold followed by 50-fold diluted in cation-adjusted Mueller-Hinton broth (CAMHB) plates to 1×10^6 CFU/PO. 198 ul of the inoculum was added into the round-bottom 96-well plates prefilled with 2 ul of 100-fold compound working solutions. After incubating at 35 +/−2° C. in ambient atmosphere for 18-24 h, MIC was recorded as the lowest concentration under which no visible bacterial growth was observed.

S. aureus ATCC 43300 = assay: MIC assay against gram positive S. aureus; format: cell-based; conditions: Staphylococcus aureus, ATCC43300
Protocol: as §1

S. aureus VRS-2 = S. aureus VRS-2 peritonitis infection model; format: in vivo, female ICR mice; conditions: 50 mg/kg PO QD, 1 h post-infection, p<0.05
Protocol: The efficacy of compound 3 was evaluated in the S. aureus VRS-2 peritonitis infection model. The test article, compound 3 at 0.1, 0.3 and 1 mg/kg, was intraperitoneally (IP) administered twice at 2 and 16 h after infection; as well as once at 2 mg/kg at 2 h post-infection. The control reference agent, linezolid at 50 mg/kg, was orally (PO) administered once at 1 h post-infection. […] All animals in the vehicle group succumbed to infection between Day 1 to Day 2, resulting in 100% mortality, and a mean 15 h survival time. […] In the compound 3 at 1 mg/kg IP BID dose group, one out of eight animals survived till Day 7 of the study period, resulting in 13% survival rate, and a mean 33 h survival time.
For efficacy testing, the 0.4 mg/mL compound 3 solution was prepared by dissolving 1.21 mg of compound 3, corresponding to active ingredient of 1.02 mg with a correction factor of 1.19, in 2.55 mL of WFI. The 0.4 mg/mL compound 3 working solution was further diluted with WFI to generate three lower dosing solutions of 0.2, 0.06 and 0.02 mg/mL. All dosing solutions were soluble and colorless.
PDS supplied vancomycin and linezolid as reference controls for both MIC and in vivo studies. […] The 3.2 mg/mL linezolid 50× stock solution was prepared by dissolving 1.0 mg of linezolid in 0.313 mL of DMSO. Both solutions were colorless and soluble. For efficacy testing, one tablet of linezolid, at 600 mg, was dissolved in 12 mL of 1% Tween 80 in saline (0.9% NaCl) to generate a 50 mg/mL of stock solution. The 50 mg/mL linezolid stock solution was further diluted with 1% Tween 80 in 0.9% NaCl to generate the dosing solution of 5 mg/mL. Both solutions were insoluble with white color.
The S. aureus strain VRS-2 peritonitis infection model was performed with immunocompetent female ICR mice, weighing 22±2 g. All animals were specific pathogen free. The PDS standard protocol for preparing S. aureus cultures for mouse infection studies was followed. A 0.2 mL aliquot of a single-use glycerol stock (at −80° C.) was used to seed […] heart infusion (BHI) and then incubated at 35-37° C. with shaking (250 rpm) for 8 h. Bacterial cells in the 20 mL was pelleted by centrifugation (3,500×g) for 15 minutes, and then re-suspended in 10 mL cold phosphate buffer saline (PBS). The optical density, OD620 nm, was measured and used to guide dilution. The PBS suspensions were stored on ice for no more than 1 h prior to animal inoculation. The dilutions were performed by 1:1 dilution of BHI broth containing hog gastric mucin to obtain the target inoculum density, 1×10^8 CFU/mouse, per 0.5 mL with 5% mucin (final concentration). The actual colony count was determined by plating dilutions to nutrient agar (NA) plates followed by 20-24 h incubation at 35-37° C.
On Day 0, animals were infected with bacterial suspension with 5% mucin by intraperitoneal injection. The actual inoculum was 1.93×10^8 CFU/mouse with a target inoculum of 1×10^8 CFU/mouse in the peritonitis infection model. Test article, compound 3, was formulated in WFI and intraperitoneally (IP) administered with the dose schedule and concentrations indicated in the study design. Doses were administered once at 2 h post-infection or twice (BID) at 2 and 16 h post-infection. The animals were monitored for survival up to 7 days, twice daily (AM 9:00/PM 17:00). […]
Animals were monitored for mortality twice daily (AM 9:00/PM 17:00) for 7 days after infection. […]

[1] = test system: Staphylococcus aureus ATCC 33591 (MRSA); assay: MIC assay against gram positive and antibiotic-resistant S. aureus; format: cell-based; conditions: Staphylococcus aureus ATCC 33591, MRSA; read-out: MIC
Protocol: (§2) The MICs of vancomycin and linezolid were determined as quality controls and the MIC values of each strain met the acceptance criteria based on PDS historical reference data.
(§3) The direct colony suspension method was used to prepare inoculated broth. Isolated colonies were taken from an 18-24 h culture plate. Optical density measurements (OD620 nm) were used to estimate the bacterial density. The test article, compound 3, and reference control stock solutions were prepared in 100% DMSO as 50× stock solutions. The 50× stock solutions were diluted by 2-fold serial titrations with 100% DMSO for a total of 11 concentrations. A 4 μL aliquot of each dilution was added to 196 μL of cation-adjusted Mueller Hinton Broth II medium seeded with the organism in wells of a 96 well plate. The final vehicle concentration was two percent (2%) in all assay wells. The final bacterial count was 2 to 8×10^5 CFU/mL. The final compound 3 concentration range was 16 to 0.016 μg/mL. Each test substance dilution was evaluated in duplicate on one test occasion. Vehicle-control and reference controls were used as blank and positive controls, respectively. Plates were incubated at 35-37° C. for 18 h. The test plates were visually examined and each well was visually scored for growth or complete inhibition of growth. The MIC value was recorded.

[2] = test system: Staphylococcus aureus VRS-2 (VRSA); assay: as above; format: cell-based; conditions: Staphylococcus aureus VRS-2, VRSA; read-out: MIC
Protocol: as §2, §3

[3] = test system: Staphylococcus aureus ATCC 19636; assay: as above; format: cell-based; conditions: ATCC19636; Staphylococcus aureus ATCC 19636; read-out: MIC
Protocol: as §2, §3

[4] = test system: Staphylococcus aureus BAA-1556 (MRSA); assay: as above; format: cell-based; conditions: Staphylococcus aureus BAA-1556, MRSA; read-out: MIC
Protocol: as §2, §3

[5] = test system: Aspergillus fumigatus AF3; assay: Anti-fungal MIC assay; format: cell-based
Protocol: (§4) The first round of testing included Candida parapsilosis, Candida krusei, Paecilomyces variotii, Candida albicans, Aspergillus fumigatus, and Blastomyces dermatitidis. […] The second round of testing included Candida parapsilosis, Candida krusei, Candida albicans, Candida auris, Candida glabrata, Candida guilliermondii, and Cryptococcus neoformans.
(§5) Stock solutions of the investigational agent were prepared at concentrations 100-times the highest concentration to be tested (6400 μg/ml) using dimethyl sulfoxide. Aliquots of the stock solutions were dispensed into polystyrene vials and stored at −20° C.
(§6) The synthetic medium RPMI-1640 (with glutamine, without bicarbonate, and with phenol red) was used. The RPMI was buffered to a pH of 7.0+0.1 at 25° C. with 0.165M MOPS (3-[N-morpholino] propanesulfonic acid). Sterile U-shaped 96-well cell culture plates were used to perform the MIC assays. Dilutions of the DMSO stocks were prepared in RPMI to achieve 2× concentrations. After the dilutions of the working 2× investigational antifungal solutions were prepared, 0.1 ml of each concentration was transferred into a pre-specified column of the U-shaped 96-well cell culture plate using sterile pipettes.
(§7) Fungal isolates were grown on Sabouraud dextrose agar (yeasts) or potato flake agar (filamentous fungi) and cells were collected after an appropriate period of growth for each species being evaluated (e.g., 48-72 hours for yeasts and 7 days for filamentous fungi). The fungi were suspended in sterile distilled water, and the densities of the fungal suspension were read using a spectrophotometer and adjusted to an appropriate optical density specific for each fungal species. The fungal suspension of each isolate was then diluted in RPMI. A sufficient volume of the test inoculum was prepared to directly inoculate 0.1 ml into each test well of the 96-well cell culture plate. Final inoculum ranges were dependent on the fungal species to be tested (e.g., 0.4×103 to 5×10^3 cells/ml for yeasts and dimorphic fungi, and 0.4×104 to 5×10^4 cells/ml for filamentous fungi). Each well of the 96-well cell culture plate containing the investigational antifungal compounds (0.1 ml volume) was inoculated on the day of the assay with 0.1 ml of the fungal suspension. Growth control wells contained 0.1 ml of fungal suspension and 0.1 ml of the growth medium without antifungal agents. The media control well contained 0.2 ml of the growth medium.
(§8) The microdilution trays were incubated at 35° C. without agitation. […] One positive comparator/control was used for yeast (fluconazole) and one was used for filamentous fungi (voriconazole).

[6] = test system: Aspergillus fumigatus AF2; assay: Anti-fungal MIC assay; format: cell-based
Protocol: as §4, §5, §6, §7, §8

[7] = test system: Blastomyces dermatitidis BD3; assay: Anti-fungal MIC assay; format: cell-based
Protocol: as §4, §5, §6, §7, §8

[8] = test system: Blastomyces dermatitidis BD1; assay: Anti-fungal MIC assay; format: cell-based
Protocol: as §4, §5, §6, §7, §8

[9] = test system: Aspergillus fumigatus AF293; assay: Anti-fungal MIC assay; format: cell-based; conditions: read-out: MIC, 50% growth inhibition
Protocol: as §4, §5, §6, §7, §8

[10] = test system: Blastomyces dermatitidis BD2; assay: Anti-fungal MIC assay; format: cell-based
Protocol: as §4, §5, §6, §7, §8

Candida krusei ATCC6258 = assay: Anti-fungal MIC assay; format: cell-based; conditions: Pichia kudriavzevii, first round (Table 5)
Protocol: as §4, §5, §6, §7, §8

[11] = read-out: MIC, 50% growth inhibition
[12] = read-out: MIC, 100% growth inhibition

MIC (A. baumannii ATCC 17978; Acinetobacter baumannii, ATCC17978, substance alone): 138 µM
SMILES: N=C(N)c1cccc(CCCCCCCc2cccc(C3CCNC3)c2)c1 (centres unmarked) [Compound 2, 3-(7-(3-(pyrrolidin-3-yl)phenyl)heptyl)benzimidamide]
synergistic effect with novobiocin (A. baumannii ATCC 17978): clear synergistic effects
synergy with novobiocin as compared to pentamidine with novobiocin (A. baumannii ATCC 17978): superior synergy
synergy with rifampicin (K. pneumoniae ATCC 43816): increased level of synergy
IC50 (NCI H69 cells): 1.5 µM

SMILES: CC(=O)NC[C@H]1CN(c2ccc(N3CCOCC3)c(F)c2)C(=O)O1 [Linezolid, reference compound]
MIC (S. aureus ATCC 27660): 4 µg/mL (≈ 11.9 µM)
MIC (S. aureus ATCC 43300): 4 µg/mL (≈ 11.9 µM)
survival rate (S. aureus VRS-2): 100%
mean survival time (S. aureus VRS-2; maximum set at 180 h): 180 h
MIC [1]: 2 µg/mL (≈ 5.93 µM)
MIC [2]: 4 µg/mL (≈ 11.9 µM)
MIC [3]: 4 µg/mL (≈ 11.9 µM)
MIC [4]: 2 µg/mL (≈ 5.93 µM)

MIC [5, 11]: 2 µg/mL (≈ 5.73 µM)
MIC [5, 12]: 4 µg/mL (≈ 11.5 µM)
MIC [6, 11]: > 16 µg/mL
MIC [6, 12]: > 16 µg/mL
MIC [7, 11]: ≤ 0.03 µg/mL
MIC [7, 12]: 0.125 µg/mL (≈ 0.358 µM)
MIC [8, 11]: ≤ 0.03 µg/mL
MIC [8, 12]: 0.06 µg/mL (≈ 0.172 µM)
MIC [9]: 0.25 µg/mL (≈ 0.716 µM)
MIC [10, 11]: ≤ 0.03 µg/mL
MIC [10, 12]: 0.125 µg/mL (≈ 0.358 µM)
MIC (Candida krusei ATCC6258; ATCC6258, Candida krusei ATCC6258, read-out: MIC, 50% growth inhibition): ≤ 0.03 µg/mL
MIC (Candida krusei ATCC6258; ATCC6258, read-out: MIC, 100% growth inhibition, Candida krusei ATCC6258): 0.125 µg/mL (≈ 0.358 µM)
SMILES: C[C@@H](c1ncncc1F)[C@](O)(Cn1cncn1)c1ccc(F)cc1F [Voricolazole, voriconazole, reference compound]
